Columns and labels:
[1] = target: T1, Metabotropic glutamate receptor 5 (Rattus norvegicus, UniProt P31424); test: Concentration required for 50% inhibition of rat metabotropic glutamate receptor 5 was determined using inositol phosphate hydrolysis assay
[2] = target: T1, Metabotropic glutamate receptor 5; test: In vitro binding affinity of compound towards rat metabotropic glutamate receptor 5 was determined by displacement of [3H]M-MPEP from rat whole brain

T1 sequence (P31424 whole entry): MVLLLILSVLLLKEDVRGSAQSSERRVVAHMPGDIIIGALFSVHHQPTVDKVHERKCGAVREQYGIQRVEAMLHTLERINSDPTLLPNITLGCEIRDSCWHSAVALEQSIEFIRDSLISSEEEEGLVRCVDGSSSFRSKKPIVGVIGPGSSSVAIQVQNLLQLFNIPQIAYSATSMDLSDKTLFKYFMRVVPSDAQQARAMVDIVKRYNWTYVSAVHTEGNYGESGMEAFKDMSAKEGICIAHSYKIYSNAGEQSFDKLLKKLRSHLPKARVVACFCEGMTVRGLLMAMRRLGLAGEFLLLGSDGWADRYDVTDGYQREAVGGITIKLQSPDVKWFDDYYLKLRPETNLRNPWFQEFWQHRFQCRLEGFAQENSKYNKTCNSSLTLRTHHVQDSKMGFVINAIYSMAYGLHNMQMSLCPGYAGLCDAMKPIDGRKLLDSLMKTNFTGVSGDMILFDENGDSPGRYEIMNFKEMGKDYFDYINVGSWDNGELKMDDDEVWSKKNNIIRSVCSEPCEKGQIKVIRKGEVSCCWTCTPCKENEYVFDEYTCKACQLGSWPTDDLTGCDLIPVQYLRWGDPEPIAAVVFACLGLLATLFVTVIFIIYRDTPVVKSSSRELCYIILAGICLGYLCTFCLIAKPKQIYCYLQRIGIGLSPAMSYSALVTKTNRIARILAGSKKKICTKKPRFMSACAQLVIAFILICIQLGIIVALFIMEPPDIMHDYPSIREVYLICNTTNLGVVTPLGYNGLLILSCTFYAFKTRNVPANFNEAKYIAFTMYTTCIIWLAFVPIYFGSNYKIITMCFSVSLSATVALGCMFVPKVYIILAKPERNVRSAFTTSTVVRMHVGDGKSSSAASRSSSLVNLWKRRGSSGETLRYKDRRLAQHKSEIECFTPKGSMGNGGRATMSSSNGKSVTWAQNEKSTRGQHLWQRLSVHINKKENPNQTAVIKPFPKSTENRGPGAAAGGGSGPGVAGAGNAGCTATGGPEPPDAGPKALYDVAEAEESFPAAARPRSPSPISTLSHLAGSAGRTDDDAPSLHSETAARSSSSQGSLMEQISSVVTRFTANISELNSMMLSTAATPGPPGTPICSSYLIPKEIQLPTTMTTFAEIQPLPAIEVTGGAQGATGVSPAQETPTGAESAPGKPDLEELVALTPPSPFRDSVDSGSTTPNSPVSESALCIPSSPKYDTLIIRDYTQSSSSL

Cc1cccc(C#Cc2cccc(OC(=O)c3ccccc3)c2)n1
IC50 [1]: 1500 nM

Cc1cccc(C#Cc2cccc(C#N)c2)n1
IC50 [1]: 5 nM

Cc1cccc(C#Cc2cccc(OCCc3ccccc3)c2)n1
IC50 [1]: 1590 nM

Cc1cccc(C#Cc2cccc(OCCc3ccc(F)cc3)c2)n1
IC50 [1]: 2050 nM

Cc1cccc(C#Cc2cccc(-c3cccs3)c2)n1
IC50 [1]: 656 nM | Ki [2]: 147 nM

Cc1cccc(C#Cc2cccc(OCCCCc3ccccc3)c2)n1
IC50 [1]: 1160 nM

Cc1cccc(C#Cc2cccc(OCCCc3ccccc3)c2)n1
IC50 [1]: 1190 nM

COc1cccc(-c2cccc(C#Cc3cccc(C)n3)c2)c1
IC50 [1]: 493 nM | Ki [2]: 2360 nM

Cc1cccc(C#Cc2cccc(-c3ccco3)c2)n1
IC50 [1]: 371 nM | Ki [2]: 36 nM

COc1cccc(C(=O)Oc2cccc(C#Cc3cccc(C)n3)c2)c1
IC50 [1]: 1720 nM

Cc1ccc(S(=O)(=O)Oc2cccc(C#Cc3cccc(C)n3)c2)cc1
IC50 [1]: > 10000 nM

Cc1cccc(C#Cc2cccc(OCc3ccccc3)c2)n1
IC50 [1]: 1840 nM

Cc1cccc(C#Cc2cncc(-c3cccc(C)n3)c2)n1
IC50 [1]: 257 nM | Ki [2]: 13 nM

Cc1cccc(C#Cc2cncc(-c3ccccc3)c2)n1
IC50 [1]: 20 nM | Ki [2]: 1.7 nM

Cc1cccc(C#Cc2cccc(OCc3cccc(I)c3)c2)n1
IC50 [1]: 1980 nM

Cc1cccc(C#Cc2cccc(-c3ccccc3)c2)n1
IC50 [1]: 629 nM | Ki [2]: 993 nM

Cc1cccc(C#Cc2cccc(OCC3CC3)c2)n1
IC50 [1]: 420 nM

Cc1cccc(C#Cc2cccc(OC(=O)Cc3ccccc3)c2)n1
IC50 [1]: 740 nM

Cc1cccc(C#Cc2cccc(OC(=O)c3cccc(I)c3)c2)n1
IC50 [1]: 1100 nM

Cc1cccc(C#Cc2cccc(OC(=O)CCCBr)c2)n1
IC50 [1]: 3350 nM

Cc1cccc(C#Cc2cccc(OS(C)(=O)=O)c2)n1
IC50 [1]: 180 nM

Cc1cccc(C#Cc2cccc([N+](=O)[O-])c2)n1
IC50 [1]: 13 nM

Cc1cccc(C#Cc2cccc(OC(=O)CCCc3ccccc3)c2)n1
IC50 [1]: 1170 nM

Cc1cccc(C#Cc2cccc(OC(=O)CCc3ccccc3)c2)n1
IC50 [1]: 890 nM

C=CCOc1cccc(C#Cc2cccc(C)n2)c1
IC50 [1]: 290 nM

CC(=O)c1cccc(C#Cc2cccc(C)n2)c1
IC50 [1]: 146 nM

Cc1cccc(C#Cc2cncc(-c3ccco3)c2)n1
IC50 [1]: 205 nM | Ki [2]: 6.5 nM

Cc1cccc(C#Cc2cncc(-c3cccs3)c2)n1
IC50 [1]: 271 nM | Ki [2]: 155 nM

COC(=O)c1cccc(C#Cc2cccc(C)n2)c1
IC50 [1]: 208 nM

Cc1cccc(C#Cc2cccc(N)c2)n1
IC50 [1]: 188 nM

COc1cccc(-c2cncc(C#Cc3cccc(C)n3)c2)c1
IC50 [1]: 282 nM | Ki [2]: 74 nM

COc1cccc(COc2cccc(C#Cc3cccc(C)n3)c2)c1
IC50 [1]: 1300 nM

COC(=O)COc1cccc(C#Cc2cccc(C)n2)c1
IC50 [1]: 2400 nM

Cc1cccc(C#Cc2cccc(OC(=O)c3ccco3)c2)n1
IC50 [1]: 1010 nM

COc1cccc(C#Cc2cccc(C)n2)c1 [M-MPEP]
IC50 [1]: 8 nM
